Assay results reported in ChEMBL document CHEMBL4411344, “Synthesis and biological evaluation of new long-chain squaramides as anti-chagasic agents in the BALB/c mouse model” (Bioorg Med Chem, 2019).
Activity calls are given as the source filed them. The calls are words filed in the database; no cut-off is given here.

Test system: not listed separately
Test: (§1) Hepatotoxicity in Balb/c mouse infected with Trypanosoma cruzi MHOM/Pe/2011/Arequipa DTU 5 trypomastigotes assessed as increase in ratio of serum ALT to GPT level at 20 mg/kg, po once daily for 5 consecutive days starting from day 75 post infection measured on day 81 post infection relative to control
Assay type: toxicity, organism-based
Conditions: in vivo
In the case of `CCCCCCNc1c(N(C)CCCN(C)C)c(=O)c1=O`, the Activity is reported as 20 to 30 U/L.
Molecule `CCCCCCCCCCCCCCCCNc1c(N(C)CCCN(C)C)c(=O)c1=O` has an Activity of 20 to 30 U/L.

Test system: Trypanosoma cruzi
Test: Antitrypanosomal activity against Trypanosoma cruzi MHOM/Pe/2011/Arequipa DTU 5 epimastigotes assessed as change in mitochondrial membrane potential at IC25 after 72 hrs by Rho123 staining based flow cytometry relative to control
Assay type: functional
Conditions: not given
`CCCCCCNc1c(N(C)CCCN(C)C)c(=O)c1=O` gave an Activity of 4.69%.
For `CCCCCCCCCCCCCCCCNc1c(N(C)CCCN(C)C)c(=O)c1=O`, the Activity was -80.61%.

Test system: not listed separately
Test: Nephrotoxicity in Balb/c mouse infected with Trypanosoma cruzi MHOM/Pe/2011/Arequipa DTU 5 trypomastigotes assessed as decrease in serum urea level at 20 mg/kg, po once daily for 5 consecutive days starting from day 75 post infection measured on day 81 post infection relative to control
Assay type: toxicity, organism-based
Conditions: in vivo
Molecule `CCCCCCNc1c(N(C)CCCN(C)C)c(=O)c1=O` has an Activity of 10 to 20 mg/dL.
Work on `CCCCCCCCCCCCCCCCNc1c(N(C)CCCN(C)C)c(=O)c1=O` yielded an Activity of 10 to 20 mg/dL.

Test system: Trypanosoma cruzi
Test: (§2) Antitrypanosomal activity against Trypanosoma cruzi MHOM/Pe/2011/Arequipa DTU 5 trypomastigotes infected in Balb/c mouse assessed as parasite-free heart at 20 mg/kg, po pretreated once daily for 5 consecutive days starting from day 75 post infection followed by cyclophosphamide-induced immunosuppression on day 100 post infection measured on day 127 post infection by PCR method
Assay type: functional
Conditions: not given
In the case of `CCCCCCNc1c(N(C)CCCN(C)C)c(=O)c1=O`, the Activity is reported as “inactive”.
`CCCCCCCCCCCCCCCCNc1c(N(C)CCCN(C)C)c(=O)c1=O` showed an Activity of 78%.

Test system: Trypanosoma cruzi
Test: as §2, with “adipose tissue” for “heart”, “10” for “75”
Assay type: functional
Conditions: not given
With `CCCCCCNc1c(N(C)CCCN(C)C)c(=O)c1=O` the Activity was “inactive”.
With `CCCCCCCCCCCCCCCCNc1c(N(C)CCCN(C)C)c(=O)c1=O` the Activity was 67%.

Test system: Trypanosoma cruzi
Test: (§3) Antitrypanosomal activity against Trypanosoma cruzi MHOM/Pe/2011/Arequipa DTU 5 trypomastigotes infected in Balb/c mouse assessed as reduction in parasitaemia reactivation at 20 mg/kg, po pretreated once daily for 5 consecutive days starting from day 75 post infection followed by cyclophosphamide-induced immunosuppression on day 100 post infection measured within 1 week post immunosuppression by Neubauer chamber method
Assay type: functional
Conditions: not given
With `CCCCCCNc1c(N(C)CCCN(C)C)c(=O)c1=O` the Activity was “inactive”.
`CCCCCCCCCCCCCCCCNc1c(N(C)CCCN(C)C)c(=O)c1=O` showed an Activity of 21%.

Test system: Trypanosoma cruzi
Test: as §2, with “spleen” for “heart”
Assay type: functional
Conditions: not given
In the case of `CCCCCCNc1c(N(C)CCCN(C)C)c(=O)c1=O`, the Activity is reported as “inactive”.
For `CCCCCCCCCCCCCCCCNc1c(N(C)CCCN(C)C)c(=O)c1=O`, the Activity was 78%.

Test system: Trypanosoma cruzi
Test: as §2, with “bone marrow” for “heart”
Assay type: functional
Conditions: not given
For `CCCCCCNc1c(N(C)CCCN(C)C)c(=O)c1=O`, the Activity was “inactive”.
Work on `CCCCCCCCCCCCCCCCNc1c(N(C)CCCN(C)C)c(=O)c1=O` yielded an Activity of 78%.

Test system: Trypanosoma cruzi
Test: as §2, with “oesophagus” for “heart”
Assay type: functional
Conditions: not given
For `CCCCCCNc1c(N(C)CCCN(C)C)c(=O)c1=O`, the Activity was “inactive”.
With `CCCCCCCCCCCCCCCCNc1c(N(C)CCCN(C)C)c(=O)c1=O` the Activity was 78%.

Test system: not listed separately
Test: as §1, with “AST” for “ALT”, “GOT” for “GPT”, “10” for “75”, “16” for “81”
Assay type: toxicity, organism-based
Conditions: in vivo
`CCCCCCNc1c(N(C)CCCN(C)C)c(=O)c1=O` showed an Activity of 30 to 40 U/L.
In the case of `CCCCCCCCCCCCCCCCNc1c(N(C)CCCN(C)C)c(=O)c1=O`, the Activity is reported as 10 to 20 U/L.

Test system: Trypanosoma cruzi
Test: Antitrypanosomal activity against Trypanosoma cruzi MHOM/Pe/2011/Arequipa DTU 5 trypomastigotes infected in Balb/c mouse assessed as reduction in splenomegaly at 20 mg/kg, po once daily for 5 consecutive days starting from day 10 post infection measured on day 127 post infection relative to control
Assay type: functional
Conditions: not given
With `CCCCCCNc1c(N(C)CCCN(C)C)c(=O)c1=O` the Activity was “Active”.
For `CCCCCCCCCCCCCCCCNc1c(N(C)CCCN(C)C)c(=O)c1=O`, the Activity was 66%.

Test system: Trypanosoma cruzi
Test: as §2, with “bone marrow” for “heart”, “10” for “75”
Assay type: functional
Conditions: not given
For `CCCCCCNc1c(N(C)CCCN(C)C)c(=O)c1=O`, the Activity was “inactive”.
With `CCCCCCCCCCCCCCCCNc1c(N(C)CCCN(C)C)c(=O)c1=O` the Activity was 67%.

Test system: Trypanosoma cruzi
Test: Antitrypanosomal activity against Trypanosoma cruzi MHOM/Pe/2011/Arequipa DTU 5 trypomastigotes infected in Balb/c mouse assessed as reduction in Ig-G level in serum at 20 mg/kg, po once daily for 5 consecutive days starting from day 10 post infection measured on day 16 post infection by ELISA
Assay type: functional, organism-based
Conditions: not given
For `CCCCCCNc1c(N(C)CCCN(C)C)c(=O)c1=O`, the Activity was “inactive”.
In the case of `CCCCCCCCCCCCCCCCNc1c(N(C)CCCN(C)C)c(=O)c1=O`, the Activity is reported as “Active”.

Test system: Trypanosoma cruzi
Test: as §2, with “stomach” for “heart”
Assay type: functional
Conditions: not given
With `CCCCCCNc1c(N(C)CCCN(C)C)c(=O)c1=O` the Activity was “inactive”.
Molecule `CCCCCCCCCCCCCCCCNc1c(N(C)CCCN(C)C)c(=O)c1=O` has an Activity of 78%.

Test system: Trypanosoma cruzi
Test: Antitrypanosomal activity against Trypanosoma cruzi MHOM/Pe/2011/Arequipa DTU 5 trypomastigotes infected in Balb/c mouse assessed as reduction in Ig-G level in serum at 20 mg/kg, po once daily for 5 consecutive days starting from day 75 post infection measured on day 81 post infection by ELISA
Assay type: functional, organism-based
Conditions: not given
For `CCCCCCNc1c(N(C)CCCN(C)C)c(=O)c1=O`, the Activity was “inactive”.
In the case of `CCCCCCCCCCCCCCCCNc1c(N(C)CCCN(C)C)c(=O)c1=O`, the Activity is reported as “inactive”.

Test system: not listed separately
Test: as §1, with “AST” for “ALT”, “GOT” for “GPT”
Assay type: toxicity, organism-based
Conditions: in vivo
`CCCCCCNc1c(N(C)CCCN(C)C)c(=O)c1=O` showed an Activity of 10 to 20 U/L.
In the case of `CCCCCCCCCCCCCCCCNc1c(N(C)CCCN(C)C)c(=O)c1=O`, the Activity is reported as 10 to 20 U/L.

Test system: Trypanosoma cruzi
Test: Trypanocidal activity against Trypanosoma cruzi MHOM/Pe/2011/Arequipa DTU 5 amastigotes infected in African green monkey Vero cells assessed as reduction in number of amastigotes per infected cells at log -0.41 to 1.7 after 72 hrs by Giemsa-staining based assay
Assay type: functional, organism-based
Conditions: not given
For `CCCCCCNc1c(N(C)CCCN(C)C)c(=O)c1=O`, the Activity was “Active”.
With `CCCCCCCCCCCCCCCCNc1c(N(C)CCCN(C)C)c(=O)c1=O` the Activity was “Active”.

Test system: Trypanosoma cruzi
Test: Antitrypanosomal activity against Trypanosoma cruzi MHOM/Pe/2011/Arequipa DTU 5 trypomastigotes infected in Balb/c mouse assessed as reduction in Ig-G level in serum at 20 mg/kg, po once daily for 5 consecutive days starting from day 10 post infection measured on day 100 post infection by ELISA
Assay type: functional, organism-based
Conditions: not given
In the case of `CCCCCCNc1c(N(C)CCCN(C)C)c(=O)c1=O`, the Activity is reported as “inactive”.
With `CCCCCCCCCCCCCCCCNc1c(N(C)CCCN(C)C)c(=O)c1=O` the Activity was “Active”.

Test system: Trypanosoma cruzi
Test: (§4) Antitrypanosomal activity against Trypanosoma cruzi MHOM/Pe/2011/Arequipa DTU 5 trypomastigotes infected in Balb/c mouse assessed as reduction in Ig-G level in serum at 20 mg/kg, po pretreated once daily for 5 consecutive days starting from day 10 post infection followed by cyclophosphamide-induced immunosuppression on day 100 post infection measured on day 127 post infection by ELISA
Assay type: functional, organism-based
Conditions: not given
For `CCCCCCNc1c(N(C)CCCN(C)C)c(=O)c1=O`, the Activity was “inactive”.
For `CCCCCCCCCCCCCCCCNc1c(N(C)CCCN(C)C)c(=O)c1=O`, the Activity was “Active”.

Test system: Trypanosoma cruzi
Test: as §3, with “10” for “75”
Assay type: functional
Conditions: not given
With `CCCCCCNc1c(N(C)CCCN(C)C)c(=O)c1=O` the Activity was “inactive”.
Work on `CCCCCCCCCCCCCCCCNc1c(N(C)CCCN(C)C)c(=O)c1=O` yielded an Activity of 26%.

Test system: not listed separately
Test: Toxicity in Balb/c mouse assessed as reduction in body mass at 20 mg/kg, po once daily for 5 consecutive days starting from day 75 post infection relative to control
Assay type: organism-based
Parameters: scale not given: the % may be the effect or the level left
Conditions: in vivo
For `CCCCCCNc1c(N(C)CCCN(C)C)c(=O)c1=O`, the Activity was > 10%.
For `CCCCCCCCCCCCCCCCNc1c(N(C)CCCN(C)C)c(=O)c1=O`, the Activity was > 10%.

Test system: Trypanosoma cruzi
Test: as §2, with “adipose tissue” for “heart”
Assay type: functional
Conditions: not given
With `CCCCCCNc1c(N(C)CCCN(C)C)c(=O)c1=O` the Activity was “inactive”.
In the case of `CCCCCCCCCCCCCCCCNc1c(N(C)CCCN(C)C)c(=O)c1=O`, the Activity is reported as 78%.

Test system: Trypanosoma cruzi
Test: as §2, with “spleen” for “heart”, “10” for “75”
Assay type: functional
Conditions: not given
For `CCCCCCNc1c(N(C)CCCN(C)C)c(=O)c1=O`, the Activity was “inactive”.
`CCCCCCCCCCCCCCCCNc1c(N(C)CCCN(C)C)c(=O)c1=O` gave an Activity of 67%.

Test system: Trypanosoma cruzi
Test: as §2, with “muscle” for “heart”
Assay type: functional
Conditions: not given
For `CCCCCCNc1c(N(C)CCCN(C)C)c(=O)c1=O`, the Activity was “inactive”.
Molecule `CCCCCCCCCCCCCCCCNc1c(N(C)CCCN(C)C)c(=O)c1=O` has an Activity of 78%.

Test system: Trypanosoma cruzi
Test: as §2, with “lungs” for “heart”, “10” for “75”
Assay type: functional
Conditions: not given
For `CCCCCCNc1c(N(C)CCCN(C)C)c(=O)c1=O`, the Activity was “inactive”.
With `CCCCCCCCCCCCCCCCNc1c(N(C)CCCN(C)C)c(=O)c1=O` the Activity was 67%.

Test system: not listed separately
Test: Nephrotoxicity in Balb/c mouse infected with Trypanosoma cruzi MHOM/Pe/2011/Arequipa DTU 5 trypomastigotes assessed as decrease in serum urea level at 20 mg/kg, po once daily for 5 consecutive days starting from day 10 post infection measured on day 16 post infection relative to control
Assay type: toxicity, organism-based
Conditions: in vivo
For `CCCCCCNc1c(N(C)CCCN(C)C)c(=O)c1=O`, the Activity was 10 to 20 mg/dL.
`CCCCCCCCCCCCCCCCNc1c(N(C)CCCN(C)C)c(=O)c1=O` showed an Activity of 10 to 20 mg/dL.

Test system: Trypanosoma cruzi
Test: as §2, with “lungs” for “heart”
Assay type: functional
Conditions: not given
For `CCCCCCNc1c(N(C)CCCN(C)C)c(=O)c1=O`, the Activity was “inactive”.
`CCCCCCCCCCCCCCCCNc1c(N(C)CCCN(C)C)c(=O)c1=O` showed an Activity of 78%.

Test system: not listed separately
Test: Nephrotoxicity in Balb/c mouse infected with Trypanosoma cruzi MHOM/Pe/2011/Arequipa DTU 5 trypomastigotes assessed as decrease in serum urea level at 20 mg/kg, po once daily for 5 consecutive days starting from day 75 post infection measured on day 127 post infection relative to control
Assay type: toxicity, organism-based
Conditions: in vivo
For `CCCCCCNc1c(N(C)CCCN(C)C)c(=O)c1=O`, the Activity was 10 to 20 mg/dL.
In the case of `CCCCCCCCCCCCCCCCNc1c(N(C)CCCN(C)C)c(=O)c1=O`, the Activity is reported as 10 to 20 mg/dL.

Test system: Trypanosoma cruzi
Test: as §4, with “from day 75 post infection” for “from day 10 post infection”
Assay type: functional, organism-based
Conditions: not given
With `CCCCCCNc1c(N(C)CCCN(C)C)c(=O)c1=O` the Activity was “inactive”.
In the case of `CCCCCCCCCCCCCCCCNc1c(N(C)CCCN(C)C)c(=O)c1=O`, the Activity is reported as “Active”.
